Data on one molecule can be found in ChEMBL document CHEMBL1156482, “Molecular mechanism of action of monocyclam versus bicyclam non-peptide antagonists in the CXCR4 chemokine receptor” (J Biol Chem, 2007).

Assay [1] relates to Human immunodeficiency virus 1. The assay can be described thus: Antiviral activity against HIV1 NDK infected in U87.CD4 cells expressing human CXCR4 D262N mutant. In kind it is functional, organism-based. The settings on record: Human immunodeficiency virus 1, NDK.
Assay [2] deals with Human immunodeficiency virus 1. The assay can be described thus: Antiviral activity against HIV1 NDK infected in U87.CD4 cells expressing human CXCR4 H281A mutant. In kind it is functional, organism-based. The settings on record: Human immunodeficiency virus 1, NDK.
The subject of assay [3] is Human immunodeficiency virus 1. The assay can be described thus: Antiviral activity against HIV1 NDK infected in U87.CD4 cells expressing human CXCR4 D171ND262N mutant. In kind it is functional, organism-based. The settings on record: Human immunodeficiency virus 1, NDK.
The test system of assay [4] is Human immunodeficiency virus 1. The assay can be described thus: Antiviral activity against HIV1 NL43 infected in U87.CD4 cells expressing human CXCR4 D171N/D262N mutant. In kind it is functional, organism-based.
In assay [5] the test system is C-X-C chemokine receptor type 4 (Homo sapiens), P61073 [H113A]. Kind of assay: Displacement of [125I]12G5 antibody from transmembrane domain 3 of human CXCR4 H113A mutant expressed in COS7 cells. The following applies: COS-7. In kind it is cell-based.
Chain of C-X-C chemokine receptor type 4 (Homo sapiens), P61073 [H113A] (P61073 whole entry H113A, the tested form may be a part): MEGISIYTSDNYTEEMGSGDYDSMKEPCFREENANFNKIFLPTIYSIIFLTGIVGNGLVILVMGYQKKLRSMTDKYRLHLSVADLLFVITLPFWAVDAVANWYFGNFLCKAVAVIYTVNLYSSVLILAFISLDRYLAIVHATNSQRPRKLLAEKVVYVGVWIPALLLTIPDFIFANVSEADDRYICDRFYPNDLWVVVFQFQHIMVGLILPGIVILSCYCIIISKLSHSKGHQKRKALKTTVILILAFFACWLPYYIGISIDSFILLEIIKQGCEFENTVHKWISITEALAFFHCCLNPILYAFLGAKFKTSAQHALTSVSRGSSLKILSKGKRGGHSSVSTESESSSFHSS
Assay [6] relates to Human immunodeficiency virus 1. Kind of assay: Antiviral activity against HIV1 NL43 infected in U87.CD4 cells expressing human wild type CXCR4. In kind it is functional, organism-based. The following applies: Human immunodeficiency virus 1, NL43, U87.CD4.
Assay [7] relates to Human immunodeficiency virus 1. The assay can be described thus: Antiviral activity against HIV1 NDK infected in U87.CD4 cells expressing human wild type CXCR4. In kind it is functional, organism-based. The settings on record: Human immunodeficiency virus 1, NDK.
Assay [8] has as its system Human immunodeficiency virus 1. The assay can be described thus: Antiviral activity against HIV1 clinical isolate 10 infected U87.CD4 cells expressing human CXCR4 E288A mutant. In kind it is functional, organism-based. The following applies: Human immunodeficiency virus 1, U87.CD4.
Assay [9] relates to Human immunodeficiency virus 1. Kind of assay: Antiviral activity against HIV1 NL43 infected in U87.CD4 cells expressing human CXCR4 E288A mutant. In kind it is functional, organism-based.
For assay [10], the system named is C-X-C chemokine receptor type 4 (Homo sapiens), P61073 [D171N]. Kind of assay: Displacement of [125I]12G5 antibody from transmembrane domain 4 of human CXCR4 D171N mutant expressed in COS7 cells. In kind it is cell-based. The following applies: COS-7. For orientation: Loss of bound radioactivity is the signal in a displacement assay; it reports binding, not function.
Chain of C-X-C chemokine receptor type 4 (Homo sapiens), P61073 [D171N] (P61073 whole entry D171N, the tested form may be a part): as the sequence (P61073 whole entry H113A, the tested form may be a part) above, with A113H, D171N counted along it

The test system of assay [11] is Human immunodeficiency virus 1. The assay can be described thus: Antiviral activity against HIV1 NL43 infected in U87.CD4 cells expressing human CXCR4 H281A mutant. The following applies: Human immunodeficiency virus 1, NL43, U87.CD4. In kind it is functional, organism-based.
For assay [12], the system named is Human immunodeficiency virus 1. Kind of assay: Antiviral activity against HIV1 clinical isolate 10 infected in U87.CD4 cells expressing human CXCR4 D262N mutant. In kind it is functional, organism-based. The settings on record: Human immunodeficiency virus 1, U87.CD4.
The subject of assay [13] is Human immunodeficiency virus 1. Kind of assay: Antiviral activity against HIV1 NL43 infected in U87.CD4 cells expressing human CXCR4 D171N mutant. In kind it is functional, organism-based. The following applies: Human immunodeficiency virus 1, NL43, U87.CD4.
The test system of assay [14] is Human immunodeficiency virus 1. The assay can be described thus: Antiviral activity against HIV1 NDK infected in U87.CD4 cells expressing human CXCR4 E288A mutant. In kind it is functional, organism-based. The following applies: Human immunodeficiency virus 1, NDK.
Assay [15] relates to Human immunodeficiency virus 1. Kind of assay: Antiviral activity against HIV1 NL43 infected in U87.CD4 cells expressing human CXCR4 D262N mutant. In kind it is functional, organism-based. The following applies: Human immunodeficiency virus 1, NL43, U87.CD4.
In assay [16] the test system is Human immunodeficiency virus 1. Kind of assay: Antiviral activity against HIV1 clinical isolate 10 infected in U87.CD4 cells expressing human wild type CXCR4. In kind it is functional, organism-based. The settings on record: Human immunodeficiency virus 1, U87.CD4.
The subject of assay [17] is Human immunodeficiency virus 1. The assay can be described thus: Antiviral activity against HIV1 clinical isolate 10 infected in U87.CD4 cells expressing human CXCR4 H281A mutant. The settings on record: Human immunodeficiency virus 1, U87.CD4. In kind it is functional, organism-based.
Assay [18] relates to C-X-C chemokine receptor type 4 (Homo sapiens), P61073 [I259A]. The following applies: COS-7.
Chain of C-X-C chemokine receptor type 4 (Homo sapiens), P61073 [I259A] (P61073 whole entry I259A): as the sequence (P61073 whole entry H113A, the tested form may be a part) above, with A113H, I259A counted along it
Assay [19] deals with Human immunodeficiency virus 1. Kind of assay: Antiviral activity against HIV1 clinical isolate 10 infected in U87.CD4 cells expressing human CXCR4 D171ND262N mutant. In kind it is functional, organism-based. The settings on record: Human immunodeficiency virus 1, U87.CD4.
The subject of assay [20] is Human immunodeficiency virus 1. The assay can be described thus: Antiviral activity against HIV1 clinical isolate 10 infected in U87.CD4 cells expressing human CXCR4 D171N mutant. In kind it is functional, organism-based. The following applies: Human immunodeficiency virus 1, U87.CD4.
For assay [21], the system named is Human immunodeficiency virus 1. The assay can be described thus: Antiviral activity against HIV1 NDK infected in U87.CD4 cells expressing human CXCR4 D171N mutant. In kind it is functional, organism-based. The settings on record: Human immunodeficiency virus 1, NDK.
In assay [22] the test system is C-X-C chemokine receptor type 4 (Homo sapiens), P61073 [H281A]. The assay can be described thus: Antagonist activity at human CXCR4 H281A mutant expressed in U87.CD4 cells assessed as inhibition of CXCL12-induced calcium mobilization. In kind it is functional, cell-based. A general note: Calcium assays in cells follow changes in intracellular calcium, usually with a dye or a luminescent sensor.
Chain of C-X-C chemokine receptor type 4 (Homo sapiens), P61073 [H281A] (P61073 whole entry H281A): as the sequence (P61073 whole entry H113A, the tested form may be a part) above, with A113H, H281A counted along it

pIC50: −log10 of the molar value. Activity calls are given as the source filed them. The calls are words filed in the database; no cut-off is given here.

For orientation: pIC50 means −log10 of the IC50, conventionally taken in molar units. Higher therefore signals a small IC50. For the molecule `c1cc(CN2CCCNCCNCCCNCC2)ccc1CN1CCCNCCNCCCNCC1` [PLERIXAFOR], the pIC50 is less than 5.52 in assay [1]; more than 8.72 in assay [2]; less than 5.52 in assay [3]; 7.85 in assay [6]; 8.12 in assay [7]; less than 6.92 in assay [8]. The pIC50 is more than 8.72 in assay [11]; 5.59 in [12]; 7.34 in [13]; less than 5.22 in [14]; less than 6.22 in assay [15]; 8.52 in [16]. The pIC50 in [17] is 8.62; in assay [19] it was 5.57; in assay [20], 7.72; in [21], 7.77. For the same molecule, the result in assay [4] and in assay [9] was inactive. For the same molecule, the logKi in assay [5] was -5.71; in assay [10], -4.87; in assay [18], -5.81. For the same molecule, in assay [22], the outcome was Active.
